This is an account of results in patent US6472526B1, “Imidazole derivatives having an inhibitory activity for farnesyl transferase and process for preparation thereof” (LG Chemical Ltd., priority 1997, dated 2002).

Bounds are passed on as bounds.

Test [1] concerns the target T1, Ras farnesyl transferase (Homo sapiens, UniProt P49354+P49356).
T1 construct: made in house
Nature of the test: In vitro inhibitory activity for Ras farnesyl transferase, K-Ras substrate. In kind it is biochemical. As to conditions: in vitro farnesyl transferase assay, K-Ras; read-out: K-Ras IC50.

For test [2], the target named is T2, Ras farnesyl transferase (Rattus norvegicus, UniProt Q02293+Q04631).
T2 construct: endogenous in cells; host or cells: Rat2 fibroblasts transformed with H-Ras or with an H-Ras/K-Ras C-terminus fusion
Description: In vivo (cellular) inhibitory activity for Ras farnesyl transferase, Rat2 cell line transformed with fused protein of H-Ras substituted with polybasic lysine domain at C-terminus of K-Ras. It is filed as cell-based. The conditions noted are these: Rat2 cell line transformed with H-Ras fused with polybasic lysine domain of K-Ras C-terminus; concentration inhibiting 50% of farnesyl bonding; read-out: K-Ras CIC50. The gist of the method: (§1)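 Farnesylated versus unfarnesylated Ras bands were measured by autoradiography after Y13-259 immunoprecipitation and SDS-PAGE, giving CIC50 as 50% inhibition of farnesylation. Rat2 cells expressing H-Ras or an H-Ras fusion with K-Ras polybasic C-terminus got compound (1% DMSO), then [35S]methionine from 4 h onward for 20 h.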

For test [3], the target named is T2, Ras farnesyl transferase. Description: In vivo (cellular) inhibitory activity for Ras farnesyl transferase, Rat2 cell line which expresses C-Harvey-Ras protein. It is filed as cell-based. As to conditions: Rat2 cell line expressing C-Harvey-Ras; concentration inhibiting 50% of farnesyl bonding of Ras protein; read-out: H-Ras CIC50. A digest of the protocol:
as §1

The target of test [4] is T1, Ras farnesyl transferase. Description: In vitro inhibitory activity for Ras farnesyl transferase, H-Ras substrate. It is filed as biochemical. The conditions noted are these: recombinant farnesyl transferase 4.5 nM, Ras substrate protein 1.5 μM, tritium-farnesylpyrophosphate 0.15 μM, 30 minutes at 37° C.; read-out: H-Ras IC50.

Turning to `COCCN(C)C(=O)c1cn(Cc2cncn2CCc2ccc(C)cc2)cc1-c1cccc2ccccc12` [Compound 37, 3-[N-(2-Methoxyethyl)-N-methyl]carbamoyl-1-[1-(4-methyl)phenethyl-1H-imidazol-5-yl]methyl-4-(naphthalen-1-yl)-1H-pyrrole], the IC50 was 3 nM at Ras farnesyl transferase [1], 10000 to 50000 nM on Ras farnesyl transferase [2], 25 nM on Ras farnesyl transferase [3] and 2 nM at Ras farnesyl transferase [4].

For `Cc1ccc(CCn2cncc2Cn2cc(C(=O)N3CCN(C)CC3)c(-c3cccc4ccccc34)c2)cc1` [Compound 38, 1-[1-(4-Methyl)phenethyl-1H-imidazol-5-yl]methyl-3-[4-methylpiperazin-1-yl]carbonyl-4-(naphthalen-1-yl)-1H-pyrrole], the IC50 on Ras farnesyl transferase [1] is 4 nM; on Ras farnesyl transferase [2], 10000 to 50000 nM; on Ras farnesyl transferase [3] it was 25 nM; at Ras farnesyl transferase [4] it was 2 nM.

On to `COCCN(C)C(=O)c1cn(Cc2cncn2CCc2ccc(Cl)cc2)cc1-c1cccc2ccccc12` [Compound 39, 1-[1-(4-Chloro)phenethyl-1H-imidazol-5-yl]methyl-3[N-(2-methoxyethyl)-N-methyl]carbamoyl-4-(naphthalen-1-yl)-1H-pyrrole], for which the IC50 at Ras farnesyl transferase [1] was 3 nM; at Ras farnesyl transferase [2] it was 10000 to 50000 nM; on Ras farnesyl transferase [3], 20 nM; on Ras farnesyl transferase [4] it was 2 nM.

Turning to `CN1CCN(C(=O)c2cn(Cc3cncn3CCc3ccc(Cl)cc3)cc2-c2cccc3ccccc23)CC1` [Compound 40], the IC50 on Ras farnesyl transferase [1] is 3 nM; on Ras farnesyl transferase [2], 10000 to 50000 nM; on Ras farnesyl transferase [3], 25 nM; at Ras farnesyl transferase [4] it was 2 nM.

Consider `COCCN(C)C(=O)c1cn(Cc2cncn2CCc2ccc3ccccc3c2)cc1-c1cccc2ccccc12` [Compound 41, 3-[N-(2-Methoxyethyl)-N-methyl]carbamoyl-4-(naphthalen-1-yl)-1-{1-[2-(naphthalen-2-yl)ethyl]-1H-imidazol-5-yl}methyl-1H-pyrrole], for which the IC50 on Ras farnesyl transferase [1] is 4 nM; at Ras farnesyl transferase [2], 10000 to 50000 nM; on Ras farnesyl transferase [3] it was 15 nM; on Ras farnesyl transferase [4], 3 nM.

For the compound `CN1CCN(C(=O)c2cn(Cc3cncn3CCc3ccc4ccccc4c3)cc2-c2cccc3ccccc23)CC1` [Compound 42, 3-[4-Methylpiperazin-1-yl]carbonyl-4-(naphthalen-1-yl)-1-{1-[2-(naphthalen-2-yl)ethyl]-1H-imidazol-5-yl}methyl-1H-pyrrole], the IC50 was 3 nM at Ras farnesyl transferase [1], 10000 to 50000 nM at Ras farnesyl transferase [2], 15 nM on Ras farnesyl transferase [3] and 4 nM at Ras farnesyl transferase [4].

As to `CN1CCN(C(=O)c2cn(Cc3cncn3CCc3ccc(O)cc3)cc2-c2cccc3ccccc23)CC1` [Compound 43, 1-[1-(4-Hydroxy)phenethyl-1H-imidazol-5-yl]methyl-3-[4-mmethylpiperazin-1-yl]carbonyl-4-(naphthalen-1-yl)-1H-pyrrole], the IC50 on Ras farnesyl transferase [1] was 2 nM; at Ras farnesyl transferase [2], 5000 to 10000 nM; at Ras farnesyl transferase [3], 15 nM; on Ras farnesyl transferase [4], 1 nM.

On to `O=C(c1cccs1)c1cn(Cc2c[nH]cn2)cc1-c1cccc2ccccc12` [Compound 44, 1-(1H-Imidazol-4-yl)methyl-4-(naphthalen-1-yl)-3-(thiophen-2-yl)carbonyl-1H-pyrrole], for which the IC50 on Ras farnesyl transferase [1] is 100 to 10000 nM; at Ras farnesyl transferase [2], 10000 to 100000 nM; on Ras farnesyl transferase [3], 1000 to 50000 nM; at Ras farnesyl transferase [4] it was 250 nM.

Turning to `O=C(c1ccsc1)c1cn(Cc2c[nH]cn2)cc1-c1cccc2ccccc12` [Compound 45], the IC50 was 100 to 10000 nM at Ras farnesyl transferase [1], 10000 to 100000 nM on Ras farnesyl transferase [2], 1000 to 50000 nM at Ras farnesyl transferase [3] and 130 nM on Ras farnesyl transferase [4].

For `O=C(c1ccccc1)c1cn(Cc2c[nH]cn2)cc1-c1cccc2ccccc12` [Compound 46], the IC50 on Ras farnesyl transferase [1] is 100 to 10000 nM; at Ras farnesyl transferase [2], 10000 to 100000 nM; at Ras farnesyl transferase [3] it was 1000 to 50000 nM; on Ras farnesyl transferase [4] it was 120 nM.

Turning to `O=C(c1ccccc1Br)c1cn(Cc2c[nH]cn2)cc1-c1cccc2ccccc12` [Compound 47], the IC50 on Ras farnesyl transferase [1] was 100 to 10000 nM; at Ras farnesyl transferase [2], 10000 to 100000 nM; on Ras farnesyl transferase [3], 1000 to 50000 nM; on Ras farnesyl transferase [4], 90 nM.

In the case of `O=C(c1cccc(Br)c1)c1cn(Cc2c[nH]cn2)cc1-c1cccc2ccccc12` [Compound 48], the IC50 is 10000 nM on Ras farnesyl transferase [1], 10000 to 100000 nM on Ras farnesyl transferase [2], 1000 to 50000 nM on Ras farnesyl transferase [3] and 150 nM at Ras farnesyl transferase [4].

For `O=C(c1ccc(Br)cc1)c1cn(Cc2c[nH]cn2)cc1-c1cccc2ccccc12` [Compound 49], the IC50 on Ras farnesyl transferase [1] is 485 nM; at Ras farnesyl transferase [2], below 20000 nM; at Ras farnesyl transferase [3], 700 nM; at Ras farnesyl transferase [4] it was 30 nM.

As for `Cc1ccccc1C(=O)c1cn(Cc2c[nH]cn2)cc1-c1cccc2ccccc12` [Compound 50], the IC50 at Ras farnesyl transferase [1] was 100 to 10000 nM; on Ras farnesyl transferase [2], 10000 to 100000 nM; at Ras farnesyl transferase [3], 1000 to 50000 nM; on Ras farnesyl transferase [4], 150 nM.

On to `Cc1cccc(C(=O)c2cn(Cc3c[nH]cn3)cc2-c2cccc3ccccc23)c1` [Compound 51], for which the IC50 was 100 to 10000 nM on Ras farnesyl transferase [1], 10000 to 100000 nM on Ras farnesyl transferase [2], 1000 to 50000 nM on Ras farnesyl transferase [3] and 270 nM at Ras farnesyl transferase [4].

On to `Cc1ccc(C(=O)c2cn(Cc3c[nH]cn3)cc2-c2cccc3ccccc23)cc1` [Compound 52], for which the IC50 at Ras farnesyl transferase [1] was 100 to 10000 nM; at Ras farnesyl transferase [2] it was 10000 to 100000 nM; at Ras farnesyl transferase [3], 1000 to 50000 nM; on Ras farnesyl transferase [4], 70 nM.

For `COc1cccc(C(=O)c2cn(Cc3c[nH]cn3)cc2-c2cccc3ccccc23)c1` [Compound 53], the IC50 on Ras farnesyl transferase [1] was 100 to 10000 nM; on Ras farnesyl transferase [2] it was 10000 to 100000 nM; at Ras farnesyl transferase [3] it was 1000 to 50000 nM; on Ras farnesyl transferase [4], 300 nM.

Regarding `COc1ccc(C(=O)c2cn(Cc3c[nH]cn3)cc2-c2cccc3ccccc23)cc1` [Compound 54], the IC50 on Ras farnesyl transferase [1] is 100 to 10000 nM; at Ras farnesyl transferase [2], 10000 to 100000 nM; at Ras farnesyl transferase [3], 1000 to 50000 nM; at Ras farnesyl transferase [4], 390 nM.

With `O=C(c1ccccc1Cl)c1cn(Cc2c[nH]cn2)cc1-c1cccc2ccccc12` [Compound 55], the IC50 is 100 to 10000 nM at Ras farnesyl transferase [1], 10000 to 100000 nM at Ras farnesyl transferase [2], 1000 to 50000 nM at Ras farnesyl transferase [3] and 60 nM on Ras farnesyl transferase [4].

With `O=C(c1ccc(Cl)cc1)c1cn(Cc2c[nH]cn2)cc1-c1cccc2ccccc12` [Compound 56], the IC50 on Ras farnesyl transferase [1] is 100 to 10000 nM; on Ras farnesyl transferase [2] it was 10000 to 100000 nM; on Ras farnesyl transferase [3] it was 1000 to 50000 nM; on Ras farnesyl transferase [4], 40 nM.

For the compound `O=C(c1ccc(Cl)cc1Cl)c1cn(Cc2c[nH]cn2)cc1-c1cccc2ccccc12` [Compound 57], the IC50 on Ras farnesyl transferase [1] was 100 to 10000 nM; at Ras farnesyl transferase [2] it was 10000 to 100000 nM; at Ras farnesyl transferase [3], 1000 to 50000 nM; at Ras farnesyl transferase [4], 38 nM.

In the case of `O=C(c1ccc(F)cc1)c1cn(Cc2c[nH]cn2)cc1-c1cccc2ccccc12` [Compound 58], the IC50 at Ras farnesyl transferase [1] is 100 to 10000 nM; at Ras farnesyl transferase [2], 10000 to 100000 nM; at Ras farnesyl transferase [3] it was 1000 to 50000 nM; on Ras farnesyl transferase [4], 25 nM.

On to `O=C(c1ccc(F)cc1F)c1cn(Cc2c[nH]cn2)cc1-c1cccc2ccccc12` [Compound 59], for which the IC50 at Ras farnesyl transferase [1] is 100 to 10000 nM; at Ras farnesyl transferase [2], 10000 to 100000 nM; on Ras farnesyl transferase [3], 1000 to 50000 nM; on Ras farnesyl transferase [4], 570 nM.

Regarding `N#Cc1ccc(C(=O)c2cn(Cc3c[nH]cn3)cc2-c2cccc3ccccc23)cc1` [Compound 60], the IC50 at Ras farnesyl transferase [1] was 100 to 10000 nM; on Ras farnesyl transferase [2], 10000 to 100000 nM; at Ras farnesyl transferase [3], 1000 to 50000 nM; at Ras farnesyl transferase [4], 200 nM.
